pIC50: −log10 of the molar value. “Also recorded” adds a separate entry of the source.
Experiments:
[1] = biological target: T1, PPARG (peroxisome proliferator activated receptor-gamma), GST-PPARG-LBD (Homo sapiens, UniProt P37231); experiment: LanthaScreen TR-FRET PPARG Competitive Binding Assay; parameters: key: “+” indicates the degree of the binding activity, and as the number of “+” increases, the binding activity is stronger; ++: “+” indicates the degree of the binding activity, and as the number of “+” increases, the binding activity is stronger; +++: “+” indicates the degree of the binding activity, and as the number of “+” increases, the binding activity is stronger; ++++: “+” indicates the degree of the binding activity, and as the number of “+” increases, the binding activity is stronger; settings: degree of binding activity
T1 construct: 15 μL of 5 nM GST-PPARG-LBD and 5 nM Tb-GST-antibody were added; purchased Invitrogen PV4894
T1 sequence (P37231 238-503 limits assumed): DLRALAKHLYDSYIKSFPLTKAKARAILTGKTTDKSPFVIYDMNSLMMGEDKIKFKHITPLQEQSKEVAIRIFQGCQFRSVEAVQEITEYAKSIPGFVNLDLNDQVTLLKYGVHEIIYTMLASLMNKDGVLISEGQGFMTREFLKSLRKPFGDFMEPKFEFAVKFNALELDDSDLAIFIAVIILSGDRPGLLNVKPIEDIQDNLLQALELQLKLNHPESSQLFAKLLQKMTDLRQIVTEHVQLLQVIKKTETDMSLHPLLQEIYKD
Method in brief: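 GST-tagged human PPARG LBD in a TR-FRET competitive binding kit, 1 h at room temperature. Read-out is the 518/488 nm emission ratio (340 nm excitation); activity = 100% − compound ratio/vehicle ratio, compared with rosiglitazone.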

CYP 2D6 = biological target: T2, CYP 2D6 (Homo sapiens, UniProt P10635); experiment: CYP (cytochrome P450)-suppressing effect, Invitrogen Vivid kit; format: in vitro ADME
T2 construct: purchased Invitrogen P2862
T2 sequence (P10635 whole entry): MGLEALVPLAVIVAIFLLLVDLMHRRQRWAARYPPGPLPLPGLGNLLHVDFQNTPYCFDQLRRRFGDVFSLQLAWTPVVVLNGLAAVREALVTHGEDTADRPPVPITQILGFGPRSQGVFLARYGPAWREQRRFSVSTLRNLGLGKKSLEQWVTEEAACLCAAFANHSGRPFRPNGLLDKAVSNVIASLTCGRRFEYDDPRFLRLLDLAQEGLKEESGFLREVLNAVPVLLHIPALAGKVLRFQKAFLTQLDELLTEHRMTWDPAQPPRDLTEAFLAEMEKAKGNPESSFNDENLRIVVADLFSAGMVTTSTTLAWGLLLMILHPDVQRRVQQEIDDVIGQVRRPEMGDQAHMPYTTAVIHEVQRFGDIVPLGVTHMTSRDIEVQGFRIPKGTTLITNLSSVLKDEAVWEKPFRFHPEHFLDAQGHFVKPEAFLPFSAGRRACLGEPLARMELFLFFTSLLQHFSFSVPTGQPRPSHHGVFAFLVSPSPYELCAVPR
Description: (§1) To evaluate the CYP (cytochrome P450)-suppressing activity of the compounds prepared in the examples of the invention, the following experiment was performed.
(§2) The analysis of CYP1A2, 2C19, and 3A4 suppressing activity was performed by using a BD GENTEST (459100, 459400, and 459500) kit, and the analysis of CYP 2C9- and 2D6-suppressing activity was performed by using an Invitrogen (P2861 and P2862) kit.
(§3) When the Invitrogen kit was used, the compounds of the present invention were diluted in Vivid CYP450 reaction buffer (1×) at the final concentration of 2.5×. The P450 BACULOSOMES sample and Regeneration system (100×) were diluted in Vivid CYP450 reaction buffer (1×) at different proper concentrations. 80 μL of the compound of the invention (2.5×) and […] of the diluted P450 BACULOSOMES sample mixture were mixed in a U-bottom 96-well plate, followed by pre-incubation for 10 minutes. Vivid CYP450 Substrate and NADP+ (100×) were diluted in Vivid CYP450 reaction buffer (1×) at a desired concentration, respectively, according to their corresponding types of CYP450 and substrates. 20 μL of Substrate-NADP+ mix was loaded in the plate when the pre-incubation had been completed, followed by reaction for 1 hour. Upon completion of the reaction, the reaction mixture was transferred in a white plate and fluorescent wavelength was measured with a microplate reader (2C9 excitation 415 nm, emission 460 nm, 2D6 excitation 400 nm, emission 502 nm).
(§4) The test results were calculated by the following formula:
(§5) (1−(fluorescence value of the test material/fluorescence value of the vehicle))×100%.

CYP 2C9 = biological target: T3, CYP 2C9 (Homo sapiens, UniProt P11712); experiment: as above; format: in vitro ADME
T3 construct: purchased Invitrogen P2861
T3 sequence (P11712 whole entry): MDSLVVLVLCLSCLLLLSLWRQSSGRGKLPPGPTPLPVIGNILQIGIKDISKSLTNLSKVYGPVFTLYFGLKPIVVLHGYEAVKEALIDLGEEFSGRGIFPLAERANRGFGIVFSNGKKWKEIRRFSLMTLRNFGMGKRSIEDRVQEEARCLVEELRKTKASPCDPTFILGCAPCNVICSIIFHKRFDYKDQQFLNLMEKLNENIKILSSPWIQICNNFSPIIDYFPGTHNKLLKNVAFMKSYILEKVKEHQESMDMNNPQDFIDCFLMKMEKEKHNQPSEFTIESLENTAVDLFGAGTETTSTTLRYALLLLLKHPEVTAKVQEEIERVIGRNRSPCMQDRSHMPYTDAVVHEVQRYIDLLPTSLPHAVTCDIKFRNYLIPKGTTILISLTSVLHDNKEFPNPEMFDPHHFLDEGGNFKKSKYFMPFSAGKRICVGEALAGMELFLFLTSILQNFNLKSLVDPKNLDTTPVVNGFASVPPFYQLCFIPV
Description: as §1, §2, §3, §4, §5

[2] = biological target: T4, HERG (Human Ether-a-go-go-Related Gene) channel (Homo sapiens, UniProt Q12809); experiment: Evaluation of cardiotoxicity, patch-clamp on HEK293 cells expressing HERG channel; format: cell-based; settings: HERG peak tail current
T4 construct: expressed in transfected cells; host or cells: HEK293
T4 sequence (Q12809 whole entry): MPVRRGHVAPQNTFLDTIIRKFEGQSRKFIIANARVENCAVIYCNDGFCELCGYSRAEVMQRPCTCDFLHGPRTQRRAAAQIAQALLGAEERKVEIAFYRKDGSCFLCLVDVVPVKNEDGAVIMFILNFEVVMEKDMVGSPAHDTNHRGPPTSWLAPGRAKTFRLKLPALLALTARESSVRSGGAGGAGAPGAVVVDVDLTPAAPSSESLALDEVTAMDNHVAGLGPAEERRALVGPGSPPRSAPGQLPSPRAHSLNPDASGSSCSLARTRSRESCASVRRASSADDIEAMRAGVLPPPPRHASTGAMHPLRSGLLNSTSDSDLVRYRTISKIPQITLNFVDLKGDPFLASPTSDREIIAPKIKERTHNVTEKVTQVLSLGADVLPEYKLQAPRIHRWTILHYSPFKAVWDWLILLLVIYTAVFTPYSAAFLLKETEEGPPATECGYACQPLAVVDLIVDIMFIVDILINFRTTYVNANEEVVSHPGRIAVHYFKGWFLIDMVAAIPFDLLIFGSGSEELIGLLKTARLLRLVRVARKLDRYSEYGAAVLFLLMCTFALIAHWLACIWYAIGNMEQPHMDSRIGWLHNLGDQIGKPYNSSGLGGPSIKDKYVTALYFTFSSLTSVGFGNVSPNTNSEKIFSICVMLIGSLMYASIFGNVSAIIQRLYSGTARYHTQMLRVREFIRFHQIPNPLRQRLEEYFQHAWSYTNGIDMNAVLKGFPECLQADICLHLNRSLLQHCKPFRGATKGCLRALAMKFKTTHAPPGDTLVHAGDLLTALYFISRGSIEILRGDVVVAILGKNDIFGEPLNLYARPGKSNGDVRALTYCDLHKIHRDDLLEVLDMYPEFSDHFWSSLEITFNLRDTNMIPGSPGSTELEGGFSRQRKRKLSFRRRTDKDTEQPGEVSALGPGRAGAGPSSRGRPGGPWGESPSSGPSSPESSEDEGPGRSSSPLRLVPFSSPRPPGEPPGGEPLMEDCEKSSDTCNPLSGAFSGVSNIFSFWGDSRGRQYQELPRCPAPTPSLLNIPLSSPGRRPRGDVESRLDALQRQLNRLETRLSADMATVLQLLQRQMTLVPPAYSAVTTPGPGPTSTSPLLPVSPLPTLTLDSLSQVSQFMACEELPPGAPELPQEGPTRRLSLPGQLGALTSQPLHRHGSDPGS
Description: HEK293 cells expressing HERG (Human Ether-a-go-go-Related Gene) channel safely were cultured in MEM (Minimum Essential Medium) supplemented with 10% fetal bovine serum (FBS), 1 mM sodium pyruvate, 0.1 mM non-essential amino acid solution, 100 units/ml penicillin-streptomycin, 100 μg/ml streptomycin sulfate and 100 μg/ml zeocin under the condition of air:CO2=95:5. When the cells were grown to 60-80% confluency, the cells were loaded in the medium supplemented with 0.25% trypsin and 0.02% EDTA (ethylenediaminetertraacetic acid) for 3 minutes. The cells were then washed with a fresh medium and then dispensed on a new plastic culture dish. For the electrophysiological record, the cells were seeded on a glass cover slip of 5 mm in diameter, followed by incubation in a 24-well plate for 5-24 hours. Then, the cells were transferred into the recording chamber.
The current value of all the cells was measured by the conventional patch-clamp technique or Port-a-Patch (Nanion, Germany) semiautomatic technique. The pH of the external bath solution containing 136 mM NaCl, 5.4 mM KCl, 1.8 mM CaCl2, 1 mM MgCl2, 10 mM glucose, and 10 mM HEPES (4-(2-hydroxyethyl)-1-piperazineethanesulfonic acid) was adjusted to 7.4 using NaOH. The pH of the intracellular pipette solution containing 130 mM KCl, 1 mM MgCl2, 10 mM EGTA (ethylene glycol tetraacetic acid), 5 mM Mg-ATP, and mM HEPES was adjusted to 7.2 using KOH.
In the conventional patch-clamp technique, the patch pipette was pulled by a PP-83 pipette puller (Narishige, Tokyo, Japan), so that it had 2-4 MΩ of resistance in the external bath solution. The ionic current was recorded by using EPC7 pulse amplifier (HEKA electronic, Germany). The voltage-clamp amplification was regulated using the pClamp computer program (Axon Instruments, USA), and the obtained data were analyzed. During the recording, the solution above was continually spread on HEK293 cells in the chamber. For the recording, the Port-a-Patch (Nanion, Germany) semiautomatic patch system was used, and the amplifier used herein was EPC10.
The membrane potential was maintained at −80 mV, which was changed to +20 mV for 4 seconds, then changed to −50 mV for 6 seconds and then maintained again at −80 mV. The changes were made every 25 seconds.
To obtain the concentration-reaction curve in the presence of the drug, dose-dependent inhibition was entered into the Hill formula represented by mathematical formula 1 below.
In mathematical formula 1, Idrug indicates the peak tail current in the presence of a drug, Icontrol indicates the maximum peak tail current in the absence of a drug, D indicates the concentration of a drug, h indicates Hill constant, and IC50 indicates the concentration when the half-maximum peak tail current was suppressed.

[3] = tested on: CYP isozymes 1A2, 2C9, 2C19, and 2D6; experiment: CYP suppression compared with comparative examples (Table 3); format: in vitro ADME; settings: result in words
Description: as §1, §2, §3
(§6) When the BD GENTEST kit was used, the compounds of the present invention were diluted in acetonitrile at the final concentration of 50×. The NADPH-Cofactor mix was prepared by diluting the Cofactor, G6PDH, and control protein provided by the kit in DW according to the instructed concentration. 4 μL of the compound of the example (50×) was mixed with 96 μL of NADPH-Cofactor mix in a 96-well plate, followed by pre-incubation in a 37° C. incubator for 10 minutes.
(§7) The enzyme/substrate mixture was diluted in the buffer (0.5 M potassium phosphate, pH 7.4) provided by the kit according to the instructed concentration. Each CYP450 enzyme substrate was diluted in DW at a desired concentration respectively according to the corresponding types of CYP450. 100 μL of the enzyme/substrate mixture was loaded in the plate when the pre-incubation had been completed, followed by reaction in a 37° C. incubator for 15 minutes (1A2) and 30 minutes (3A4 and 2C19). Upon completion of the reaction, the mixture was transferred to a white plate, and the fluorescent wavelength was measured with a microplate reader (1A2, 2C19 excitation 410 nm, emission 460 nm; 3A4, excitation 409 nm, emission 530 nm).
as §4, §5

CYP 3A4 = biological target: T5, CYP 3A4 (Homo sapiens, UniProt P08684); experiment: CYP (cytochrome P450)-suppressing effect, BD GENTEST kit; format: in vitro ADME
T5 construct: purchased BD GENTEST 459500
T5 sequence (P08684 whole entry): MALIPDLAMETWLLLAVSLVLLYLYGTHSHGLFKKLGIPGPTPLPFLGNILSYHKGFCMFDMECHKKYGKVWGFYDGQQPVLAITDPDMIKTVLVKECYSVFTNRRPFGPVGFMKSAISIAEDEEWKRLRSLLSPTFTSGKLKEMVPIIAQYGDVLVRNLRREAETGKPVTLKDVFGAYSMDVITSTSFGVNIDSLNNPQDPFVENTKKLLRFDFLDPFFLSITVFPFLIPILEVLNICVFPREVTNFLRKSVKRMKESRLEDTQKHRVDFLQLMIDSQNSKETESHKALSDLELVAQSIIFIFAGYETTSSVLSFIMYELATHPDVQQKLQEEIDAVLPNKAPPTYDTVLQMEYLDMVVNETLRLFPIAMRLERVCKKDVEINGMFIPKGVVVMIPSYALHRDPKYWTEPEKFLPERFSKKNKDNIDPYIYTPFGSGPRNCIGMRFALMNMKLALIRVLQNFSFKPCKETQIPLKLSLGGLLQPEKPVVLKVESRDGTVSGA
Description: as §1, §2, §6, §7, §4, §5

CYP 2C19 = biological target: T6, CYP 2C19 (Homo sapiens, UniProt P33261); experiment: as above; format: in vitro ADME
T6 construct: purchased BD GENTEST 459400
T6 sequence (P33261 whole entry): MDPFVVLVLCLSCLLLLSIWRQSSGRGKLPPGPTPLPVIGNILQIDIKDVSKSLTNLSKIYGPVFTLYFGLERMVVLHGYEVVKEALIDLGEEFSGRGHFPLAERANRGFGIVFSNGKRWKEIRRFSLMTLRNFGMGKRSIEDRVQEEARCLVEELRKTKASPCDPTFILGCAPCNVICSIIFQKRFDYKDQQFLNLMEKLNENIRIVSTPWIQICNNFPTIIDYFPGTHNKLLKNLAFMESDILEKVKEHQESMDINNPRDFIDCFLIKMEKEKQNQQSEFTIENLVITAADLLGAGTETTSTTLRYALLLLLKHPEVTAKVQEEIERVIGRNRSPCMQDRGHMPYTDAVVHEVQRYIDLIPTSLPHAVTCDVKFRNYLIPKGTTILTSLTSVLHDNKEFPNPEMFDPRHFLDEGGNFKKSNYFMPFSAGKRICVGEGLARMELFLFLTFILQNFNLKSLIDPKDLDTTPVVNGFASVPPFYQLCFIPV
Description: as §1, §2, §6, §7, §4, §5

CYP1A2 = biological target: T7, CYP1A2 (Homo sapiens, UniProt P05177); experiment: as above; format: in vitro ADME
T7 construct: purchased BD GENTEST 459100
T7 sequence (P05177 1-516): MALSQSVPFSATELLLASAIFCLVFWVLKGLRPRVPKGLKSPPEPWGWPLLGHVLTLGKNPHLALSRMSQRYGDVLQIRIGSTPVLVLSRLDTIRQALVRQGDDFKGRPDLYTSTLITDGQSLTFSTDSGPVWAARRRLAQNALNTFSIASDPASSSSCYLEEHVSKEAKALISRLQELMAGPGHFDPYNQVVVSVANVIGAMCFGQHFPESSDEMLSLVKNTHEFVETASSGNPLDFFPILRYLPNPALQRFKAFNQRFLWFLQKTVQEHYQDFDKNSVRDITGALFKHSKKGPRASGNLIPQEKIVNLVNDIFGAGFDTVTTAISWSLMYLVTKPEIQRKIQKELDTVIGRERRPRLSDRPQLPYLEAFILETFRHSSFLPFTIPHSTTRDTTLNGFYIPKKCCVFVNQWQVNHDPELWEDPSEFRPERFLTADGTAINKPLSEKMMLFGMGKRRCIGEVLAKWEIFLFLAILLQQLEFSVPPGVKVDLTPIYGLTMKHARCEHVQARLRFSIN
Description: as §1, §2, §6, §7, §4, §5

bone cells = settings: cell culture test; cited from earlier work

Row | Binding assay (1 μLM) [1] | CYP(10 μL, %) 2D6 (CYP 2D6) [%] | CYP(10 μL, %) 2C9 (CYP 2C9) [%] | CYP(10 μL, %) 3A4 (CYP 3A4) [%] | CYP(10 μL, %) 2C19 (CYP 2C19) [%] | CYP(10 μL, %) 1A2 (CYP1A2) [%] | SMILES | pIC50 [2] | suppression of CYP isozymes 1A2, 2C9, 2C19, and 2D6 compared with SR1664 and SR1824 [3] | fat generation in bone cells (bone cells)
1 | ++++ | 94.15 | 55.36 | 54.62 | 85.71 | 100.73 | Cc1ccc([C@H](C)NC(=O)c2ccc3c(c2)CCCN3Cc2ccc(-c3ccccc3C(=O)[O-])cc2)cc1F.[Na+] [Example 56, sodium (S)-4′-((6-((1-(3-fluoro-4-methylphenyl)ethyl)carbamoyl)-3,4-dihydroquinoline-1(2H)-yl)methyl)-[1,1′-biphenyl]-2-carboxylate] | 4.14 | less than the compounds of the comparative examples; also recorded: less strongly than the compounds of the Comparative Examples | –
2 | + | 94.83 | 52.02 | 71.21 | 74.03 | 101.50 | C[C@H](NC(=O)c1ccc2c(c1)CCCN2Cc1cccc(-c2ccccc2C(=O)O)c1)c1ccc(C#N)cc1 [Example 118, (S)-3′-((6-((1-(4-cyanophenyl)ethyl)carbamoyl)-3,4-dihydroquinoline-1(2H)-yl)methyl)-[1,1′-biphenyl]-2-carboxylic acid] | – | less than the compounds of the comparative examples; also recorded: less strongly than the compounds of the Comparative Examples | –
3 | +++ | 82.48 | 59.36 | 52.65 | 58.85 | 102.45 | C[C@H](NC(=O)c1ccc2c(c1)CCCN2Cc1cccc(-c2ccccc2C(N)=O)c1)c1ccc([N+](=O)[O-])cc1 [Example 123, (S)-1-((2′-carbamoyl-[1,1′-biphenyl]-3-yl)methyl)-N-(1-(4-nitrophenyl)ethyl)-1,2,3,4-tetrahydroquinoline-6-carboxamide] | – | less than the compounds of the comparative examples; also recorded: less strongly than the compounds of the Comparative Examples | –
4 | +++ | 86.92 | 52.84 | 55.88 | 54.84 | 94.17 | C[C@H](NC(=O)c1ccc2c(c1)CCCN2Cc1cccc(-c2ccccc2C(N)=O)c1F)c1ccc([N+](=O)[O-])cc1 [Example 131, (S)-1-((2′-carbamoyl-2-fluoro-[1,1′-biphenyl]-3-yl)methyl)-N-(1-(4-nitrophenyl)ethyl)-1,2,3,4-tetrahydroquinoline-6-carboxamide] | – | less than the compounds of the comparative examples; also recorded: less strongly than the compounds of the Comparative Examples | –
5 | +++ | 80.63 | 63.24 | 60.95 | 53.50 | 94.00 | C[C@H](NC(=O)c1ccc2c(c1)CCCN2Cc1cc(-c2ccccc2C(N)=O)ccc1F)c1ccc([N+](=O)[O-])cc1 [Example 139, (S)-1-((2′-carbamoyl-4-fluoro-[1,1′-biphenyl]-3-yl)methyl)-N-(1-(4-nitrophenyl)ethyl)-1,2,3,4-tetrahydroquinoline-6-carboxamide] | – | less than the compounds of the comparative examples; also recorded: less strongly than the compounds of the Comparative Examples | –
6 | + | – | – | – | – | – | C[C@H](NC(=O)c1ccc2c(c1)CCCN2Cc1ccccc1-c1ccc(C(=O)O)cc1)c1ccc([N+](=O)[O-])cc1 [Example 155, (S)-2′-((6-((1-(4-nitrophenyl)ethyl)carbamoyl)-3,4-dihydroquinoline-1(2H)-yl)methyl)-[1,1′-biphenyl]-4-carboxylic acid] | 4.13 | – | –
7 | + | – | – | – | – | – | C[C@H](NC(=O)c1ccc2c(c1)CCCN2Cc1ccccc1-c1ccc(C(=O)O)cc1)c1ccc2ccccc2c1 [Example 156, (S)-2′-((6-((1-(naphthalene-2-yl)ethyl)carbamoyl)-3,4-dihydroquinoline-1(2H)-yl)methyl)-[1,1′-biphenyl]-4-carboxylic acid] | 4.26 | – | –
8 | ++ | – | – | – | – | – | C[C@H](NC(=O)c1ccc2c(c1)CCCN2Cc1ccccc1-c1ccc(C(=O)O)cc1)c1ccc(C#N)cc1 [Example 157, (S)-2′-((6-((1-(4-cyanophenyl)ethyl)carbamoyl)-3,4-dihydroquinoline-1(2H)-yl)methyl)-[1,1′-biphenyl]-4-carboxylic acid] | 4.37 | – | –
9 | – | – | – | – | – | – | Cc1c(C)n(Cc2ccc(-c3ccccc3C(=O)O)cc2)c2ccc(C(=O)N[C@@H](C)c3ccc([N+](=O)[O-])cc3)cc12 [SR1664] | – | – | does not induce problems such as fat generation in bone cells
